# Reference: article PMC10747602, “Dose Response, Dosimetric, and Metabolic Evaluations of Replacement PFAS Perfluoro-(2,5,8-trimethyl-3,6,9-trioxadodecanoic) Acid (HFPO-TeA)” (Toxics, 2023)
# Values joined by “and” are separate entries in the source; they are usually repeats but may differ in a detail not shown here. Identical values can stand only once.
# Assay: Five-day oral gavage exposure: body weight, liver weights, clinical observations
# Assay type: in vivo, Sprague Dawley rats
# Conditions: for Body Weight Change / Liver Weight / Relative Liver Weight / Absolute Liver Weight / Body Weight Gain: 5 days
# Protocol: The in vivo exposure study was performed under a contract to Jacobs Technology, Inc. (Dallas, TX, USA; EP-C-15-008) and BioSpyder Technologies, Inc. (Carlsbad, CA, USA; 68HE0B20P0250). Animal handling was subcontracted out and performed by Integrated Laboratory Systems (ILS, Morrisville, NC, USA). All procedures followed Animal Welfare Act Regulations 9 CFR 1A, 1–4, and animals were handled and treated according to the Guide for the Care and Use of Laboratory Animals. Male and female Sprague Dawley rats (n = 36/sex) were purchased from Charles River Laboratory (Raleigh, NC, USA) and allowed to acclimate for 7–10 days before initial dosing. Animals were assigned to groups using analysis of variance (ANOVA) to ensure the mean body weights of the groups were not statistically different. Same-sex pairs were housed in polycarbonate cages (23 cm × 44 cm × 21 cm) with hardwood bedding (Northeastern Products Corp., Warrensburg, NY, USA), changed twice per week. Rats were kept in rooms maintained between 20.0 and 25.0 °C and 30.0 and 70.0% humidity while exposed to a 12 h light–dark cycle. Certified Purina Pico Chow No. 5002 (Ralston Purina Co., St. Louis, MO, USA) and reverse osmosis (RO)-treated tap water (City of Durham, NC, USA) were available ad libitum. Rats were 8–10 weeks old at the time of dosing and weighed between 228 and 302 g (males) and 208 and 232 g (females).
# Male and female rats (n = 4/sex, dose, and time point) were dosed by gavage (5 mL/kg bodyweight) once daily for five days with water (vehicle control) or HFPO-TeA at eight half-log dose levels ranging from 0.3 to 335.2 mg/kg/day (i.e., 0.3, 0.9, 2.3, 6.3, 17, 45.9, 124, and 335.2). The results reported here are part of a larger study, for which the main purpose was to use benchmark dose–response modeling of transcriptomic data to identify a gene set basis for the point of departure (POD).
# Clinical observations were performed prior to first administration and at termination. Moribundity and mortality were assessed twice daily on weekdays and once daily on weekends. Animals found moribund were euthanized by carbon dioxide inhalation and death was confirmed by cervical dislocation.
# Whole blood was collected from the retro-orbital plexus under isoflurane anesthesia 2 h following the first dose and by cardiac puncture 24 h after the last dosage. Blood was stored in anticoagulant potassium ethylenediaminetetraacetic acid (K3EDTA)-coated vacutainers, and then processed to isolate plasma via centrifugation. Animals were euthanized via carbon dioxide asphyxiation and subsequent exsanguination. Liver was collected, weighed, cubed, and divided into three aliquots. One aliquot of tissue was flash-frozen in liquid nitrogen and stored at −80 °C for analytical chemistry analyses. The remaining two aliquots were placed in RNALater and frozen for use in the companion transcriptomic study. Liver and plasma samples were received at the U.S. EPA Center for Computational Toxicology and Exposure, Advanced Analytical Chemistry Methods Branch in Research Triangle Park, North Carolina, USA, and stored at −80 °C prior to extraction.
# [1] = 0.3 mg/kg/day, F, individual rats
# [2] = 0.3 mg/kg/day, F, mean ± SD n=4
# [3] = 0.3 mg/kg/day, M, individual rats
# [4] = 0.3 mg/kg/day, M, mean ± SD n=4
# [5] = 0.9 mg/kg/day, F, individual rats
# [6] = 0.9 mg/kg/day, F, mean ± SD n=4
# [7] = 0.9 mg/kg/day, M, individual rats
# [8] = 0.9 mg/kg/day, M, mean ± SD n=4
# [9] = 2.3 mg/kg/day, F, individual rats
# [10] = 2.3 mg/kg/day, F, mean ± SD n=4
# [11] = 2.3 mg/kg/day, M, individual rats
# [12] = 2.3 mg/kg/day, M, mean ± SD n=4
# [13] = 6.3 mg/kg/day, F, individual rats
# [14] = 6.3 mg/kg/day, F, mean ± SD n=4
# [15] = 6.3 mg/kg/day, M, individual rats
# [16] = 6.3 mg/kg/day, M, mean ± SD n=4
# [17] = 17 mg/kg/day, F, individual rats
# [18] = 17 mg/kg/day, M, individual rats
compound,measurement,setting,value
"O=C(O)C(F)(OC(F)(F)C(F)(OC(F)(F)C(F)(OC(F)(F)C(F)(F)C(F)(F)F)C(F)(F)F)C(F)(F)F)C(F)(F)F (centres unmarked) [HFPO-TeA, perfluoro-(2,5,8-trimethyl-3,6,9-trioxadodecanoic) acid]",Body Weight Change,[1],11.3 g and 8.5 g and 1.0 g and 5.1 g
same,Liver Weight,[1],10.2929 g and 10.0087 g and 10.5040 g and 10.1866 g
same,Relative Liver Weight,[1],4.458 g% and 4.431 g% and 4.573 g% and 4.489 g%
same,Absolute Liver Weight,[2],10.25 ± 0.2070 g
same,Body Weight Gain,[2],6.5 ± 4.4 g
same,Relative Liver Weight,[2],4.488 ± 0.062 g%
same,Body Weight Change,[3],28.2 g and 40.1 g and 48.5 g and 32.0 g
same,Liver Weight,[3],13.9494 g and 16.3796 g and 15.4580 g and 15.2495 g
same,Relative Liver Weight,[3],4.953 g% and 4.616 g% and 4.795 g% and 4.445 g%
same,Absolute Liver Weight,[4],15.2591 ± 1.0017 g
same,Body Weight Gain,[4],37.2 ± 9.0 g
same,Relative Liver Weight,[4],4.702 ± 0.220 g%
same,Body Weight Change,[5],8.6 g and 18.4 g and 10.4 g and 11.3 g
same,Liver Weight,[5],12.6621 g and 11.3910 g and 11.9531 g and 11.5466 g
same,Relative Liver Weight,[5],5.327 g% and 5.016 g% and 5.192 g% and 4.809 g%
same,Absolute Liver Weight,[6],11.8882 ± 0.5678 g
same,Body Weight Gain,[6],12.2 ± 4.3 g
same,Relative Liver Weight,[6],5.086 ± 0.224 g%
same,Body Weight Change,[7],46.0 g and 38.3 g and 37.4 g and 36.7 g
same,Liver Weight,[7],16.7977 g and 16.8117 g and 16.3850 g and 18.5738 g
same,Relative Liver Weight,[7],5.241 g% and 5.318 g% and 5.059 g% and 5.544 g%
same,Absolute Liver Weight,[8],17.1421 ± 0.9748 g
same,Body Weight Gain,[8],39.6 ± 4.3 g
same,Relative Liver Weight,[8],5.291 ± 0.201 g%
same,Body Weight Change,[9],21.5 g and 10.9 g and 8.5 g and 8.3 g
same,Liver Weight,[9],12.3341 g and 12.8755 g and 12.0585 g and 12.4504 g
same,Relative Liver Weight,[9],5.372 g% and 5.236 g% and 5.345 g% and 5.231 g%
same,Absolute Liver Weight,[10],12.4296 ± 0.3397 g
same,Body Weight Gain,[10],12.3 ± 6.2 g
same,Relative Liver Weight,[10],5.296 ± 0.073 g%
same,Body Weight Change,[11],37.5 g and 45.8 g and 38.2 g and 34.6 g
same,Liver Weight,[11],17.9851 g and 19.2395 g and 20.9175 g and 18.7875 g
same,Relative Liver Weight,[11],5.558 g% and 5.913 g% and 6.285 g% and 5.910 g%
same,Absolute Liver Weight,[12],19.2324 ± 1.2374 g
same,Body Weight Gain,[12],39.0 ± 4.8 g
same,Relative Liver Weight,[12],5.916 ± 0.297 g%
same,Body Weight Change,[13],-11.8 g and -21.3 g and -2.2 g and -35.7 g
same,Liver Weight,[13],10.2774 g and 9.4969 g and 12.9764 g and 9.4275 g
same,Relative Liver Weight,[13],4.807 g% and 5.025 g% and 6.242 g% and 5.243 g%
same,Absolute Liver Weight,[14],10.5446 ± 1.6664 g
same,Body Weight Gain,[14],-17.8 ± 14.3 g
same,Relative Liver Weight,[14],5.329 ± 0.634 g%
same,Body Weight Change,[15],27.5 g and 43.2 g and 31.7 g and 24.7 g
same,Liver Weight,[15],19.3187 g and 25.7576 g and 22.4062 g and 22.3377 g
same,Relative Liver Weight,[15],6.254 g% and 7.468 g% and 6.965 g% and 7.243 g%
same,Absolute Liver Weight,[16],22.4551 ± 2.6306 g
same,Body Weight Gain,[16],31.8 ± 8.1 g
same,Relative Liver Weight,[16],6.983 ± 0.527 g%
same,Body Weight Change,[17],-62.7 g and -52.1 g and -49.6 g and -56.3 g
same,Liver Weight,[17],9.7114 g and 9.8972 g and 9.1738 g and 9.9260 g
same,Relative Liver Weight,[17],6.002 g% and 5.659 g% and 5.567 g% and 5.958 g%
same,Absolute Liver Weight,"17 mg/kg/day, F, mean ± SD n=4",9.6771 ± 0.3488 g
same,Body Weight Gain,"17 mg/kg/day, F, mean ± SD n=4",-55.2 ± 5.7 g
same,Relative Liver Weight,"17 mg/kg/day, F, mean ± SD n=4",5.796 ± 0.216 g%
same,Body Weight Change,[18],-36.3 g and -50.7 g and -59.7 g and -59.2 g
same,Liver Weight,[18],13.4969 g and 13.8697 g and 12.4995 g and 13.1122 g
same,Relative Liver Weight,[18],5.386 g% and 5.593 g% and 5.511 g% and 5.909 g%
same,Absolute Liver Weight,"17 mg/kg/day, M, mean ± SD n=4",13.2446 ± 0.5851 g
same,Body Weight Gain,"17 mg/kg/day, M, mean ± SD n=4",-51.5 ± 10.9 g
same,Relative Liver Weight,"17 mg/kg/day, M, mean ± SD n=4",5.600 ± 0.223 g%
same,Abnormal clinical observations,"female rats, 6.3 mg/kg/day dose group",piloerection and thinness
same,Abnormal clinical observations (in addition),"female rats, 17 mg/kg/day dose group",coldness to touch and hunching
same,Abnormal clinical observations (alongside previous signs),"female rats, 45.9 mg/kg/day",Abnormal breathing
same,Abnormal clinical observations,"female rats, 124 mg/kg/day",decreased movement and lethargy
same,Abnormal clinical observations,"male rats, 17 and 45.9 mg/kg/day dose groups","lethargy, piloerection, thinness, hunching, coldness to touch, abnormal breathing, and decreased movement"
